The target in one assay is PI3Kdelta (Homo sapiens (Human), UniProt O00329). The experiment in a line: HTRF PI3K biochemical assay, delta isoform. As to conditions: 0.3 nM enzyme, 100 uM ATP, 5 uM PIP2, form screened per table. The source says:
(§1) HTRF PI3K Biochemical Assay to Measure Intrinsic Potency of Compound Inhibitors
(§2) The PI3-Kinase biochemical assays were developed to measure the intrinsic potency and compound dependent inhibition of the alpha, beta, delta, and gamma PI3K isoform enzymes. This assay was developed and further optimized from a kit produced by Upstate (Millipore catalog #33-047) (Millipore Sigma, Billerica Mass., USA) and has been configured for high throughput screening (HTS) and structure-activity relationship (SAR) screening. Briefly, this procedure exploits the exquisite specificity and high affinity binding of […] phosphatidyl(3,4,5)triphosphate (PIP3) to the GRP1 pleckstrin homology (PH) domain to generate the signal. In the absence of PIP3, an HTRF (Homogeneous Time-Resolved Fluorescence energy transfer) complex is formed consisting of europium (u)-labeled anti-GST, GST tagged GRP1-PH domain, biotin-PIP3 (biotinylated-PIP3) and streptavidin conjugated APC (Allophycocyanin). The native PIP3 produced by PI3-Kinase activity disrupts in a competitive manner the biotin-PIP3 from the pleckstrin homology (PH) domain, resulting in the loss of energy transfer (HTRF complex) and a decrease in the signal. The format of this assay is the same for all 4 isoforms of PI3K; the differences lie in the concentration of enzyme used to achieve robust assay window. The alpha, beta, and delta assays are run at 0.5, 1, and 0.3 nM enzymes and the gamma assay is run at 5 nM enzyme. The ATP concentration is 100 uM in the alpha, beta, and delta assays and 50 uM adenosine triphosphate (ATP) in the gamma assay. All reactions are run at 5 uM PIP2.
(§3) Compounds are serially diluted (3-fold in 100% DMSO) across a 384-well polypropylene source plated from column 3 to column 12 and column 13 to column 22, to yield 10 concentration dose response for each test compound. Columns 1, 2, 23 and 24 contain either only DMSO or pharmacological known control inhibitor. Once titrations are made, 2.5 nL of the compounds on 384 well plates are reformatted and transferred by acoustic dispense in quadruplicates to a 1536 assay plate (Greiner) to assay across all four PI3K isoform enzymes.
(§4) The PI3-Kinase biochemical assay was optimized using the HTRF kit provided by Upstate (Millipore). The assay kit contains six reagents: 1) 4× Reaction Buffer; 2) native PIP2 (substrate); 3) Stop (EDTA); 4) Detection Mix A (Streptavidin-APC); 5) Detection Mix B (Eu-labeled Anti-GST plus GST-tagged PH-domain); 6) Detection Mix C. In addition, the following items were obtained or purchased; PI3Kinase (catalog #'s alpha 14-602, beta 14-603, gamma 14-558 and delta 14-604 from Upstate Biotechnology now EMD Millipore, Mahopac, N.Y., USA), dithiothreitol (Sigma-Aldrich Corp. (St. Louis, Mo., USA) Catalog #D-5545), Adenosine-5′ triphosphate (InVitrogen (Waltham, Mass., USA), Cat#AS001A), native PIP3 (PI(3,4,5)P3, diC8, H^+, CELLSIGNALS, INC., (Columbus, Ohio, USA) Cat #907) DMSO ((Sigma-Aldrich Corp. (St. Louis, Mo., USA) Catalog #472301).
(§5) PI3Kinase Reaction Buffer is prepared by dilution the stock 1:4 with de-ionized water. DTT (DL-Dithiothreitol), phosphatidylinositol 4,5-bisphosphate (PIP2) and Biotin-PIP3 were added to 1536 assay plate at a final concentration of 5 mM, […] and 25 nM on the day of use. Enzyme addition and compound pre-incubation are initiated by the addition of 1.25 ul of PI3K (at twice its final concentration) in the 1× reaction buffer to all wells using a BioRaptr™ (Beckman Coulter, Waltham, Mass. USA). Plates are incubated at room temperature for 15 minutes. Reactions are initiated by addition of 1.25 ul of 2× substrate solution (PIP2 and ATP in 1× reaction buffer) using BioRaptr™. Plates are incubated in humidified chamber at room temperature for one hour. Reactions are quenched by addition of 0.625 uL of stop solution to all wells using the BioRaptr™. […]

The target of another assay is PI3Kalpha (Homo sapiens (Human), UniProt P42336). The experiment in a line: HTRF PI3K biochemical assay, alpha isoform (selectivity versus delta). As to conditions: relative ratio PI3K-alpha IC50 value / PI3K-delta IC50 value.
Source text: as §1, §2, §3, §4, §5
On the technique in general: In TR-FRET formats the signal depends on donor and acceptor labels being close together.

Here are results for ten compounds from patent US11230547B2, “Purine inhibitors of human phosphatidylinositol 3-kinase delta” (Merck Sharp & Dohme Corp., priority 2017, dated 2022).

Sequence of PI3Kdelta (O00329 whole entry, canonical isoform): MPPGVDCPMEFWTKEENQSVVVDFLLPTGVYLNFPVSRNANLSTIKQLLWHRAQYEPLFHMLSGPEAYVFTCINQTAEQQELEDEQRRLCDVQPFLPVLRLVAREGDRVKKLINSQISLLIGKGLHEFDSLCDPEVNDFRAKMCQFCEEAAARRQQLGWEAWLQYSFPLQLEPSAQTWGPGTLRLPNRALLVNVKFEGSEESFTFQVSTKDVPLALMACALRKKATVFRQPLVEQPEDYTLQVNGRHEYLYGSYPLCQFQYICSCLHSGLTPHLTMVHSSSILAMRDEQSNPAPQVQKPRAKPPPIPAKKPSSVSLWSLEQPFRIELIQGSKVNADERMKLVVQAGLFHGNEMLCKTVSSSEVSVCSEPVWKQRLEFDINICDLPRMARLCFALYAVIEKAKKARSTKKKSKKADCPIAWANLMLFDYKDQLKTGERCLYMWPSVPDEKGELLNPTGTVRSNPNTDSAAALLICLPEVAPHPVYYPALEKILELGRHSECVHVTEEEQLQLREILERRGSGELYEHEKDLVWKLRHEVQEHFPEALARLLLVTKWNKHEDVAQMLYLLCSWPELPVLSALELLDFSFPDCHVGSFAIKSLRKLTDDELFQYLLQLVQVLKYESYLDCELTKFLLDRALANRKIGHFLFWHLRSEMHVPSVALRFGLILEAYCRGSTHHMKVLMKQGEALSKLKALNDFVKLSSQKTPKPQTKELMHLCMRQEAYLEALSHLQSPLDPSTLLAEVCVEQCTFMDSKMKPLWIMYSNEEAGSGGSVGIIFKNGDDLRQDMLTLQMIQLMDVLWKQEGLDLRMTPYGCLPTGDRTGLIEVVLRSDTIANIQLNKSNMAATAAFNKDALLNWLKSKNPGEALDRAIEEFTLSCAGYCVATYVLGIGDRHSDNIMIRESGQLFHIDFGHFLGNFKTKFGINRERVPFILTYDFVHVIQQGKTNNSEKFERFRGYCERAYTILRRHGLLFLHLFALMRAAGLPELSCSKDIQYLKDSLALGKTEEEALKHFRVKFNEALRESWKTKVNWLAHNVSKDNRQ
Sequence of PI3Kdelta (P27986 whole entry partner, canonical isoform): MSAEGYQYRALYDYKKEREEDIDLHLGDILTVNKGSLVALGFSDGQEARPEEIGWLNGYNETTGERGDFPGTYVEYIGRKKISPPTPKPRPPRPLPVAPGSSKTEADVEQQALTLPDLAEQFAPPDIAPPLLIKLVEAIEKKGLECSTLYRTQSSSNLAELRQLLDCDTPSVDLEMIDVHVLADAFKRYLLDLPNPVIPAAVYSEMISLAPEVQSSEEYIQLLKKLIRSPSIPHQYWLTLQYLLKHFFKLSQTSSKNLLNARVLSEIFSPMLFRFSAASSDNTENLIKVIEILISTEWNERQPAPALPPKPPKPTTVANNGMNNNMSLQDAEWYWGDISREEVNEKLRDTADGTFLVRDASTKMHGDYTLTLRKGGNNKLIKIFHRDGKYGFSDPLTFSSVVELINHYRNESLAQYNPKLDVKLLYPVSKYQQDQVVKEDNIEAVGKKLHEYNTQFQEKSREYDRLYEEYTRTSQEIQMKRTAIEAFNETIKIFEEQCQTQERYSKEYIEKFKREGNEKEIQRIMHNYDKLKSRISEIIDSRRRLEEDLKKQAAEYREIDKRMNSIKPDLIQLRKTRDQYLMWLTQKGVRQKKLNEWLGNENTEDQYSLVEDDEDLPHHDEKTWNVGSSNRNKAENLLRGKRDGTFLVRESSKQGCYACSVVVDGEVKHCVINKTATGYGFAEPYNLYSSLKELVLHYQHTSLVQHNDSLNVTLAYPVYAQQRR
Sequence of PI3Kalpha (P42336 whole entry, canonical isoform): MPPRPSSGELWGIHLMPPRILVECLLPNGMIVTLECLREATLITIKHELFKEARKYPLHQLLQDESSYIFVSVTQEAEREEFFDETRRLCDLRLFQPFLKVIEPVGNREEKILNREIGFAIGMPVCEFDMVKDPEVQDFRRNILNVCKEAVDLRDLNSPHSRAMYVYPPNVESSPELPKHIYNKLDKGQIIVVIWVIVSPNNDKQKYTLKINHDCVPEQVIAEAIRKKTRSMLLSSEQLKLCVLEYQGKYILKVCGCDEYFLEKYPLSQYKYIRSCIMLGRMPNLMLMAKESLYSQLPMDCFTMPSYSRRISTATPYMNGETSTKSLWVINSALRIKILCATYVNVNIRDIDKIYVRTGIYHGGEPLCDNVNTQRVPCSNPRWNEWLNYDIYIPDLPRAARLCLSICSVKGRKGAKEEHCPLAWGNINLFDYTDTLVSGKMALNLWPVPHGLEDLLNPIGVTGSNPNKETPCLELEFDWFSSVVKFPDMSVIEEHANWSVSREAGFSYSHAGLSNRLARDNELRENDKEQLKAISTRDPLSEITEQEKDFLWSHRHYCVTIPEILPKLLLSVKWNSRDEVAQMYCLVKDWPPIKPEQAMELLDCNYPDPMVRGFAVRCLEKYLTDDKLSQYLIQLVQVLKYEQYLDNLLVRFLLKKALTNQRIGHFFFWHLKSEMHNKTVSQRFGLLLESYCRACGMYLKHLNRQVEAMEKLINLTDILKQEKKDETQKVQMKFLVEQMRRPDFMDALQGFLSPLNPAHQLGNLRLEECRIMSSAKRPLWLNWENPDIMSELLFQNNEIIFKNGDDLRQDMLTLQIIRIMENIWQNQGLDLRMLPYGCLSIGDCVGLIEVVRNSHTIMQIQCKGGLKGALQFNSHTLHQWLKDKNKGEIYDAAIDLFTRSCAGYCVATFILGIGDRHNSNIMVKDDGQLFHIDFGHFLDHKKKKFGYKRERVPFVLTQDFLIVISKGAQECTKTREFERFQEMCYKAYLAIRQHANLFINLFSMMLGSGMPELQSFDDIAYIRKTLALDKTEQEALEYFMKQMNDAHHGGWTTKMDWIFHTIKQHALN
Sequence of PI3Kalpha (P27986 whole entry partner, canonical isoform): as the sequence (P27986 whole entry partner, canonical isoform) above

A word on the IC50: it is the concentration that gives 50% inhibition. With `N#Cc1cnc(-c2cccc3[nH]ncc23)nc1N1C[C@@H]2CC1CN2c1cccc(F)c1` (stereo in doubt) [Compound 1-20, 4-[(1R,4S)-5-(3-fluorophenyl)-2,5-diazabicyclo[2.2.1]hept-2-yl]-2-(1H-indazol-4-yl)pyrimidine-5-carbonitrile], the IC50 at PI3Kdelta was found to be 200 nM. For the same compound, the “Selectivity versus PI3Kalpha” value at PI3Kalpha came to 9.
In the same order, the values of `N#Cc1cnc(-c2cccc3cnccc23)nc1N1C[C@@H]2CC1CN2c1cccc(F)c1` (stereo in doubt) [Compound 1-21, 4-[(1R,4S)-5-(3-fluorophenyl)-2,5-diazabicyclo[2.2.1]hept-2-yl]-2-isoquinolin-5-ylpyrimidine-5-carbonitrile] are 110 nM and above 10.
In the same order, the values of `N#Cc1cnc(N2CCc3[nH]ncc3C2)nc1N1CC2C[C@H]1CN2c1cccc(F)c1` (stereo in doubt) [Compound 1-22, 4-[(1S,4R)-5-(3-fluorophenyl)-2,5-diazabicyclo[2.2.1]hept-2-yl]-2-(1,4,6,7-tetrahydro-5H-pyrazolo[4,3-c]pyridin-5-yl)pyrimidine-5-carbonitrile] are 950 nM and 10.
On to `N#Cc1cnc(N2CCOCC2)nc1N1CC2C[C@H]1CN2c1cccc(F)c1` (stereo in doubt) [Compound 1-23, 4-[(1S,4R)-5-(3-fluorophenyl)-2,5-diazabicyclo[2.2.1]hept-2-yl]-2-morpholin-4-ylpyrimidine-5-carbonitrile], for which, at PI3Kdelta, the IC50 stood at 400 nM. Besides, the “Selectivity versus PI3Kalpha” value on PI3Kalpha is listed as above 10.
The matching figures for `Cn1cc(-c2ncc(C#N)c(N3CC4C[C@H]3CN4C(=O)C3CC3)n2)cn1` (stereo in doubt) [Compound 2-1, 4-[(1S,4R)-5-(cyclopropylcarbonyl)-2,5-diazabicyclo[2.2.1]hept-2-yl]-2-(1-methyl-1H-pyrazol-4-yl)pyrimidine-5-carbonitrile]: 160 nM and above 10.
As for `Cn1cc(-c2ncc(C#N)c(N3CC4C[C@H]3CN4S(=O)(=O)C3CC3)n2)cn1` (stereo in doubt) [Compound 2-2, 4-[(1S,4R)-5-(cyclopropylsulfonyl)-2,5-diazabicyclo[2.2.1]hept-2-yl]-2-(1-methyl-1H-pyrazol-4-yl)pyrimidine-5-carbonitrile], the IC50 at PI3Kdelta stood at 1200 nM. Besides, the “Selectivity versus PI3Kalpha” value on PI3Kalpha is listed as above 10.
With `Cn1cc(-c2ncc(C#N)c(N3CC4C[C@H]3CN4CC3CC3)n2)cn1` (stereo in doubt) [Compound 2-3, 4-[(1S,4R)-5-(cyclopropylmethyl)-2,5-diazabicyclo[2.2.1]hept-2-yl]-2-(1-methyl-1H-pyrazol-4-yl)pyrimidine-5-carbonitrile], the IC50 at PI3Kdelta is 1400 nM. Moreover, the “Selectivity versus PI3Kalpha” value at PI3Kalpha worked out at 8.
Consider `CCNC(=O)N1C[C@@H]2CC1CN2c1nc(-c2cnn(C)c2)ncc1C#N` (stereo in doubt) [Compound 2-4, (1R,4S)-5-[5-cyano-2-(1-methyl-1H-pyrazol-4-yl)pyrimidin-4-yl]-N-ethyl-2,5-diazabicyclo[2.2.1]heptane-2-carboxamide], for which, on PI3Kdelta, the IC50 was found to be 2200 nM. Also, the “Selectivity versus PI3Kalpha” value on PI3Kalpha came out at 5.
In the same order, the values of `Cn1cc(-c2ncc(C#N)c(N3CC4C[C@H]3CN4C(=O)C(C)(C)C)n2)cn1` (stereo in doubt) [Compound 2-5, 4-[(1S,4R)-5-(2,2-dimethylpropanoyl)-2,5-diazabicyclo[2.2.1]hept-2-yl]-2-(1-methyl-1H-pyrazol-4-yl)pyrimidine-5-carbonitrile] are 190 nM and above 10.
`Cn1cc(-c2ncc(C#N)c(N3CC4C[C@H]3CN4C(=O)C(C)(C)CF)n2)cn1` (stereo in doubt) [Compound 2-6, 4-[(1S,4R)-5-(3-fluoro-2,2-dimethylpropanoyl)-2,5-diazabicyclo[2.2.1]hept-2-yl]-2-(1-methyl-1H-pyrazol-4-yl)pyrimidine-5-carbonitrile] had an IC50 against PI3Kdelta of 160 nM. Further, the “Selectivity versus PI3Kalpha” value on PI3Kalpha is on record as above 10.
